According to paper PMC6826492, “Experimental and Computational Study of the Antioxidative Potential of Novel Nitro and Amino Substituted Benzimidazole/Benzothiazole-2-Carboxamides with Antiproliferative Activity” (Antioxidants, 2019):
Where a name gives a salt, the structure may show the parent alone. Read-outs that look alike come from different tables or passages of the source.

Columns and labels:
[1] = cited from earlier work; for N–H BDE: in water ref 48
[2] = tested on: HEK 293 (human embryonic kidney cells); test: Cytotoxic activity on non-cancerous cells (MTT assay); assay type: cell-based; conditions: non-tumor cell line, 72 h incubation, MTT, concentration that causes 50% growth inhibition
Experimental: (§1) The experiments were performed on four human cell lines, including HCT 116 (colon carcinoma), H 460 (lung carcinoma), MCF-7 (breast carcinoma), and HEK 293 (human embryonic kidney cells), in line with previously published experimental procedures. Briefly, the cells were grown in DMEM medium with the addition of 10% fetal bovine serum (FBS), 2 mM L-glutamine, 100 U/mL penicillin, and 100 µg/mL streptomycin, and cultured as monolayers at 37 °C in a humidified atmosphere with 5% CO2. Cells were seeded at 2 × 10^3 cells/well in a standard 96-well microtiter plates and left to attach for 24 h. The next day, a test compound was added in five serial 10-fold dilutions. The rate of cell growth was evaluated after 72 h of incubation with MTT assays. The obtained results are expressed as IC50 values, calculated from the concentration-response curve using linear regression analysis by fitting the test concentrations that give PG values above and below the reference value (i.e., 50%). Each test was performed in quadruplicate in at least two individual experiments.

[3] = Ferric reducing/antioxidant power (FRAP assay); assay type: biochemical; design: key to FRAP: –: Very low activity; conditions: means ± standard deviation; absorbance at 593 nm
Experimental: The FRAP method was carried out according to previously described procedures with some modifications to be compatible with an assay on a 96-well microplate. All tests were done in triplicate, while the obtained results were averaged and reported as Fe^2+ equivalents (Fe^2+ µmol).
By using the FRAP assay, we investigated the reducing power of investigated systems, which was monitored by the corresponding changes in the absorbance at 593 nm. This method is based on the ability of systems to reduce the ferric tripyridyl triazine complex (TPTZ) to the ferrous state (Fe^2+), which can be seen by an intense blue color. […] Good reducing ability was shown by the trimethoxy substituted benzimidazole-2-carboxamide 14 bearing the amino group (1102.5 ± 14.1 mmolFe^2+/mmolC).

[4] = tested on: HCT 116 (colon carcinoma); test: Antiproliferative activity in vitro (MTT assay); assay type: cell-based, human; conditions: 72 h incubation, concentration that causes 50% growth inhibition, read-out: IC50 HCT116
Experimental: as §1

H 460 (lung carcinoma) = test: Antiproliferative activity in vitro (MTT assay); assay type: cell-based, human; conditions: 72 h incubation, concentration that causes 50% growth inhibition
Experimental: as §1

MCF-7 (breast carcinoma) = test: Antiproliferative activity in vitro (MTT assay); assay type: cell-based, human; conditions: 72 h incubation, concentration that causes 50% growth inhibition
Experimental: as §1

[5] = DPPH free radical scavenging; assay type: biochemical; design: key to DPPH IC50: –: Very low activity; conditions: after 30 min of incubation with 100 μM DPPH
Experimental: The reducing activity of investigated systems was achieved by the DPPH method according to previously described procedures with modifications to assure the use in a 96-well microplate. Briefly, equal volumes of various concentrations of tested molecules (dissolved in DMSO) were added to the solution of DPPH (final concentration 50 µM in absolute ethanol). Ethanol and DMSO were used as control solutions in line with earlier reports.

Compound | FRAP [3] | IC50 ([4]; Homo sapiens, HCT-116, 72 h) | IC50 (H 460 (lung carcinoma); Homo sapiens, NCI-H460, 72 h) | IC50 (MCF-7 (breast carcinoma); Homo sapiens, MCF7, 72 h) | DPPH IC50 [5] | IC50 [5] | other results
Oc1cccc(O)c1O [1,2,3-trihydroxybenzene] |  |  |  |  |  |  | calculated BDE lower than that for its 1,3,5-trihydroxy analogue ([1]; in toluene ref 46): 15 kcal mol^−1
COc1ccc(N)cc1 [4-OMe-aniline] |  |  |  |  |  |  | N–H BDE [1]: 87.2 kcal/mol
N#Cc1ccc(N)cc1 [Compound 4-CN-aniline, 4-CN-aniline] |  |  |  |  |  |  | N–H BDE [1]: 91.8 kcal/mol
COc1ccccc1C(=O)Nc1nc2ccc([N+](=O)[O-])cc2[nH]1 [Compound 6, 2-methoxy-N-[5(6)-nitrobenzimidazol-2-yl]benzamide] | 123.5 ± 2.8 mmolFe^2+/mmolC | 6 ± 1 µM | 6 ± 5 µM | 4 ± 0.3 µM | – ^c |  | IC50 ([2]; Homo sapiens, HEK293): 3 ± 0.6 µM
COc1ccc(C(=O)Nc2nc3ccc([N+](=O)[O-])cc3[nH]2)c(OC)c1 [Compound 7, 2,4-dimethoxy-N-[5(6)-nitrobenzimidazol-2-yl]benzamide] | 139.6 ± 16.9 mmolFe^2+/mmolC | 3 ± 0.2 µM | 4 ± 2 µM | 2 ± 0.9 µM | – |  | IC50 ([2]; Homo sapiens, HEK293): 2 ± 0.3 µM
COc1ccccc1C(=O)Nc1nc2ccc([N+](=O)[O-])cc2s1 [Compound 9, 2-methoxy-N-(6-nitrobenzothiazol-2-yl)benzamide] | 6.7 ± 0.6 mmolFe^2+/mmolC | 44 ± 25 µM | 46 ± 3 µM | 9 ± 1 µM | – |  | 
COc1ccc(C(=O)Nc2nc3ccc([N+](=O)[O-])cc3s2)c(OC)c1 [Compound 10, 2,4-dimethoxy-N-(6-nitrobenzothiazol-2-yl)benzamide] | – | 9 ± 7 µM | 20 ± 3 µM | 5 ± 2 µM | – |  | IC50 ([2]; Homo sapiens, HEK293): 5 ± 1 µM
COc1cc(C(=O)Nc2nc3ccc([N+](=O)[O-])cc3s2)cc(OC)c1OC [Compound 11, 3,4,5-trimethoxy-N-(6-nitrobenzothiazol-2-yl)benzamide] | 155.5 ± 3.0 mmolFe^2+/mmolC | 37 ± 0.8 µM | 23 ± 4 µM | 17 ± 9 µM | – |  | 
COc1ccccc1C(=O)Nc1nc2ccc(N)cc2[nH]1 [Compound 12, N-[5(6)-aminobenzimidazol-2-yl]-2-methoxybenzamide] | 256.3 ± 2.8 mmolFe^2+/mmolC | 48 ± 4 µM | 39 ± 11 µM |  |  | 28.9 ± 1.03 µM | IC50 (MCF-7 (breast carcinoma)): 53 ± 9 µM
COc1ccc(C(=O)Nc2nc3ccc(N)cc3[nH]2)c(OC)c1 [Compound 13, N-[5(6)-aminobenzimidazol-2-yl]-2,4-dimethoxybenzamide] | 238.4 ± 2.1 mmolFe^2+/mmolC |  |  | 20 ± 4 µM |  | 17.7 ± 2.81 µM | IC50 [4]: 17 ± 8 µM; IC50 (H 460 (lung carcinoma)): 24 ± 8 µM
COc1ccccc1C(=O)Nc1nc2ccc(N)cc2s1 [Compound 15, N-(6-aminobenzothiazol-2-yl)-2-methoxybenzamide] | 163.4 ± 4.7 mmolFe^2+/mmolC | 6 ± 4 µM | 3 ± 0.9 µM | 3 ± 2 µM | – |  | 
COc1ccc(C(=O)Nc2nc3ccc(N)cc3s2)c(OC)c1 [Compound 16, N-(6-aminobenzothiazol-2-yl)-2,4-dimethoxybenzamide] | 203.6 ± 5.8 mmolFe^2+/mmolC | 6 ± 1 µM | 43 ± 29 µM | 5 ± 0.3 µM | – |  | IC50 ([2]; Homo sapiens, HEK293): 11 ± 8 µM
COc1cc(C(=O)Nc2nc3ccc(N)cc3s2)cc(OC)c1OC [Compound 17, N-(6-aminobenzothiazol-2-yl)-3,4,5-trimethoxybenzamide] | 235.4 ± 2.8 mmolFe^2+/mmolC | 28 ± 4 µM |  |  |  | 40.4 ± 0.4 µM | IC50 (H 460 (lung carcinoma)): ≥ 100 µM; IC50 (MCF-7 (breast carcinoma)): 5 ± 3 µM
COc1ccccc1C(=O)Nc1nc2ccc(N)cc2[nH]1 [Compound 18, N-[5(6)-aminobenzimidazol-2-yl]-2-methoxybenzamide hydrochloride] | 267.2 ± 5.0 mmolFe^2+/mmolC |  |  |  |  | 9.85 ± 0.003 µM | IC50 [4]: 33 ± 7 µM; IC50 (H 460 (lung carcinoma)): 36 ± 8 µM; IC50 (MCF-7 (breast carcinoma)): 23 ± 2 µM
COc1ccc(C(=O)Nc2nc3ccc(N)cc3[nH]2)c(OC)c1 [Compound 19, N-[5(6)-aminobenzimidazol-2-yl]-2,4-dimethoxybenzamide hydrochloride] | 259.1 ± 0.6 mmolFe^2+/mmolC |  |  |  |  | 13.3 ± 0.8 µM | IC50 [4]: ≥ 100 µM; IC50 (H 460 (lung carcinoma)): > 100 µM; IC50 (MCF-7 (breast carcinoma)): 34 ± 24 µM
COc1cc(C(=O)Nc2nc3cc(N)ccc3[nH]2)cc(OC)c1OC.Cl [Compound 20, N-(6-aminobenzimidazol-2-yl)-3,4,5-trimethoxybenzamide hydrochloride] | 267.4 ± 1.4 mmolFe^2+/mmolC | ≥ 100 µM | > 100 µM | 34 ± 30 µM |  | 8.06 ± 0.03 µM | 
COc1ccc(C(=O)Nc2nc3ccc(N)cc3s2)c(OC)c1.Cl [Compound 22, N-(6-aminobenzothiazol-2-yl)-2,4-dimethoxybenzamide hydrochloride] | 244.2 ± 3.0 mmolFe^2+/mmolC |  |  |  |  | 4 ± 0.04 µM | IC50 [2]: 11 ± 1 µM; IC50 [4]: 8 ± 2 µM; IC50 (H 460 (lung carcinoma)): 50 ± 8 µM; IC50 (MCF-7 (breast carcinoma)): 3 ± 0.2 µM
COc1cc(C(=O)Nc2nc3ccc(N)cc3s2)cc(OC)c1OC.Cl [Compound 23, N-(6-aminobenzothiazol-2-yl)-3,4,5-trimethoxybenzamide hydrochloride] | 241.3 ± 1.6 mmolFe^2+/mmolC |  |  |  |  | 1.5 ± 0.5 µM | IC50 [4]: 50 ± 11 µM; IC50 (H 460 (lung carcinoma)): 34 ± 9 µM
O=C(Nc1nc2ccc([N+](=O)[O-])cc2[nH]1)c1ccccc1O [Compound 24, 2-hydroxy-N-[5(6)-nitrobenzimidazol-2-yl]benzamide] | 39.1 ± 2.0 mmolFe^2+/mmolC | 61 ± 0.1 µM | 42 ± 20 µM | 42 ± 7 µM | – |  | 
COc1ccc(C(=O)Nc2nc3ccc([N+](=O)[O-])cc3[nH]2)c(O)c1 [Compound 25, 2-hydroxy-4-methoxy-N-[5(6)-nitrobenzimidazol-2-yl]benzamide] | 150.4 ± 3.4 mmolFe^2+/mmolC | 31 ± 4 µM | 18 ± 0.01 µM | 28 ± 6 µM | – |  | 
O=C(Nc1nc2ccc([N+](=O)[O-])cc2s1)c1ccccc1O [Compound 27, 2-hydroxy-N-(6-nitrobenzothiazol-2-yl)benzamide] | – | 6 ± 1 µM | 3 ± 0.2 µM | 2 ± 0.6 µM | – |  | IC50 ([2]; Homo sapiens, HEK293): 3 ± 1 µM
COc1ccc(C(=O)Nc2nc3ccc([N+](=O)[O-])cc3s2)c(O)c1 [Compound 28, 2-hydroxy-4-methoxy-N-(6-nitrobenzothiazol-2-yl)benzamide] | 39.8 ± 1.6 mmolFe^2+/mmolC | 7 ± 0.4 µM | 8 ± 1 µM | 10 ± 8 µM | – |  | IC50 ([2]; Homo sapiens, HEK293): 4 ± 2 µM
Nc1ccc2nc(NC(=O)c3ccccc3O)[nH]c2c1 [Compound 30, N-[5(6)-aminobenzimidazol-2-yl]-2-hydroxybenzamide] | 272.6 ± 7.1 mmolFe^2+/mmolC | 46 ± 0.2 µM | > 100 µM | 30 ± 0.8 µM |  | 42.5 ± 0.5 µM | 
COc1ccc(C(=O)Nc2nc3ccc(N)cc3[nH]2)c(O)c1 [Compound 31, N-[5(6)-aminobenzimidazol-2-yl]-2-hydroxy-4-methoxybenzamide] | 258.4 ± 6.4 mmolFe^2+/mmolC | 37 ± 7 µM | 75 ± 27 µM | ≥ 100 µM |  | 9.2 ± 0.6 µM | 
COc1ccc(C(=O)Nc2nc3ccc(N)cc3[nH]2)c(O)c1 [Compound 32, N-[5(6)-aminobenzimidazol-2-yl]-2-hydroxy-4-methoxybenzamide] | 304.3 ± 6.4 mmolFe^2+/mmolC |  |  |  |  | 29.5 ± 0.1 µM | IC50 [4]: 50 ± 13 µM; IC50 (H 460 (lung carcinoma)): ≥ 100 µM; IC50 (MCF-7 (breast carcinoma)): 80 ± 4 µM
COc1cc([C@@H]2c3cc4c(cc3[C@@H](O[C@@H]3O[C@@H]5CO[C@@H](C)O[C@H]5[C@H](O)[C@H]3O)[C@H]3COC(=O)[C@H]23)OCO4)cc(OC)c1O [Etoposide, reference compound] |  | 5 ± 2 µM | 0.1 ± 0.04 µM | 1 ± 0.7 µM |  |  | IC50 ([2]; Homo sapiens, HEK293): 1.6 ± 0.4 µM
CN [Me–NH3^+] |  |  |  |  |  |  | BDE ([1]; monocationic, in acetonitrile ref 39): 114.6 kcal/mol
